What all share (assay): AlphaScreen Assay
(In general: Alpha assays give light when donor and acceptor beads are brought close together.)

One test deals with Ephrin type-A receptor 2 (Homo sapiens, UniProt P29317).
Another test addresses T1, Ephrin type-B receptor 4 (Homo sapiens, UniProt P54760).
T1 sequence (P54760 whole entry): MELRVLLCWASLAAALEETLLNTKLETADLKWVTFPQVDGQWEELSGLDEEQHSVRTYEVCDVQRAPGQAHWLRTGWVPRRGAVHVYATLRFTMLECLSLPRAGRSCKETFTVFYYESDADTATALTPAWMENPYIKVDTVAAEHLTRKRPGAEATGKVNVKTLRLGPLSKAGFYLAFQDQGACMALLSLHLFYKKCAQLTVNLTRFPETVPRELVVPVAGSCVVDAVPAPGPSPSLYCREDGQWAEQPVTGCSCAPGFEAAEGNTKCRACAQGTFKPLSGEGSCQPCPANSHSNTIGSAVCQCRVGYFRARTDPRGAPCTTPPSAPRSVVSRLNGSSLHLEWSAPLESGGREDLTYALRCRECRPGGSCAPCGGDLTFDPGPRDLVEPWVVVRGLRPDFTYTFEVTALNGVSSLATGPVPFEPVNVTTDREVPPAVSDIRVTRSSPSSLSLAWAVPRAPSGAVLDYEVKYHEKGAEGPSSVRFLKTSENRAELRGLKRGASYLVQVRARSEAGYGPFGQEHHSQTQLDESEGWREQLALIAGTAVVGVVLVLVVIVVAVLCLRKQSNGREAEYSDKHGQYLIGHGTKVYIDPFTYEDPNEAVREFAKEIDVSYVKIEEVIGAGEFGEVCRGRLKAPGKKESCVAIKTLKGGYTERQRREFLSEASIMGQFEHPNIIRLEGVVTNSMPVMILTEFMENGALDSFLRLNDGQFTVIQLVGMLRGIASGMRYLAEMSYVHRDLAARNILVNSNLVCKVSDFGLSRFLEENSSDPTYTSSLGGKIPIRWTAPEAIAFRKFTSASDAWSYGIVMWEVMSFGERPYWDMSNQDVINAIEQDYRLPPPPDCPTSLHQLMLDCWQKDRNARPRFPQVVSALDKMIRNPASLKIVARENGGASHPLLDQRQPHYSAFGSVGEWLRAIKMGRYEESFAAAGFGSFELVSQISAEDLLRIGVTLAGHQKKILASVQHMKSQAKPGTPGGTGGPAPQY

Test [1] deals with Vascular endothelial growth factor receptor 1 (Homo sapiens, UniProt P17948).
Sequence of Vascular endothelial growth factor receptor 1 (P17948 whole entry): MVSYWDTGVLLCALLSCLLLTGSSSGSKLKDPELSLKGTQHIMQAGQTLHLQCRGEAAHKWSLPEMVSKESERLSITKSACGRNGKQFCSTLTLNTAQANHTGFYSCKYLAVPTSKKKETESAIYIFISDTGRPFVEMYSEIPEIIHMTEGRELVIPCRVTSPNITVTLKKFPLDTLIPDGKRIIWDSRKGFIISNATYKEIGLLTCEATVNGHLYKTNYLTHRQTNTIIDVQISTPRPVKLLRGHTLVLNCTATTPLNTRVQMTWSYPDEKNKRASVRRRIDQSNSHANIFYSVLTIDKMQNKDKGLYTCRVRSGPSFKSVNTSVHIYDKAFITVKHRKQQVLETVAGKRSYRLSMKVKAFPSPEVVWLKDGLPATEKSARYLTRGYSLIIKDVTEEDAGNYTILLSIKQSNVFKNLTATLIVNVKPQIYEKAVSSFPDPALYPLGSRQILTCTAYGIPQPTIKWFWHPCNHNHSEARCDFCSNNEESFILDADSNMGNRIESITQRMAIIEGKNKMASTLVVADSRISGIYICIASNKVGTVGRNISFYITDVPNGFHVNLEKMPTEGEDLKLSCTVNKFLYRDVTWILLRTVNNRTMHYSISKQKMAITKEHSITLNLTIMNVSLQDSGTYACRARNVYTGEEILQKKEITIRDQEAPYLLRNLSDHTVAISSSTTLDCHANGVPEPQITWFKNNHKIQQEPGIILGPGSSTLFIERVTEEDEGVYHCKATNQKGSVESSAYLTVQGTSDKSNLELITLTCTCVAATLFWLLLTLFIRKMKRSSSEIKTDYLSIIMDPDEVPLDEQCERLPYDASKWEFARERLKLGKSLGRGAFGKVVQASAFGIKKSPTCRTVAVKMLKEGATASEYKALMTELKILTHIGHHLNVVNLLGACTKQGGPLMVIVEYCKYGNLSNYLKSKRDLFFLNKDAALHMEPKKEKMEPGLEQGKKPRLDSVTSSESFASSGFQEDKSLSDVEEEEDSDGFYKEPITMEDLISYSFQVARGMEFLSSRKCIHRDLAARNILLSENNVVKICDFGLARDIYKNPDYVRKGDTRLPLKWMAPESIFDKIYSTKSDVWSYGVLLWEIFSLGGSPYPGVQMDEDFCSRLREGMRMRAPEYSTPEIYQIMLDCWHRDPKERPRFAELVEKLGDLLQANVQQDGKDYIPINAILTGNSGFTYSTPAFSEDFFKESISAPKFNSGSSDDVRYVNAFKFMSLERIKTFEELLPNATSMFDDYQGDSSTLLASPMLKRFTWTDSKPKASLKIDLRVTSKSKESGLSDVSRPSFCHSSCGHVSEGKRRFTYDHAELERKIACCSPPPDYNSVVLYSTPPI
Protocol: (§1) In AlphaScreen, when the donor and acceptor beads are close in proximity, a series of photochemical events will give rise to a fluorescent signal upon light activation. Here we use biotinylated poly-(Glu, Tyr) 4:1 as the kinase substrate, streptavidin-coated donor beads and anti-phosphortyrosine antibody PY100-coated acceptor beads. […] Compounds, ATP, biotinylated poly-(Glu, Tyr) and kinases are mixed in a volume of 20 μL for 1 hr at ambient temperature using Greiner 384-well white clear bottom medium binding plates. Then 10 uL solution containing 15-30 mg/mL AlphaScreen beads, 75 mM Hepes, pH 7.4, 300 mM NaCl, 120 mM EDTA, 0.3% BSA and 0.03% Tween-20 is added to each well. After 2-16 hr incubation of the beads, plates are read in a Perkin Elmer AlphaQuest reader (available from PerkinElmer Life and Analytical Sciences, Inc., of Boston Mass.).
Test [2] has as its target Vascular endothelial growth factor receptor 2 (Homo sapiens, UniProt P35968).
Protocol: as §1
In test [3] the target is Receptor tyrosine-protein kinase erbB-2 (Homo sapiens, UniProt P04626).
Sequence of Receptor tyrosine-protein kinase erbB-2 (P04626 whole entry): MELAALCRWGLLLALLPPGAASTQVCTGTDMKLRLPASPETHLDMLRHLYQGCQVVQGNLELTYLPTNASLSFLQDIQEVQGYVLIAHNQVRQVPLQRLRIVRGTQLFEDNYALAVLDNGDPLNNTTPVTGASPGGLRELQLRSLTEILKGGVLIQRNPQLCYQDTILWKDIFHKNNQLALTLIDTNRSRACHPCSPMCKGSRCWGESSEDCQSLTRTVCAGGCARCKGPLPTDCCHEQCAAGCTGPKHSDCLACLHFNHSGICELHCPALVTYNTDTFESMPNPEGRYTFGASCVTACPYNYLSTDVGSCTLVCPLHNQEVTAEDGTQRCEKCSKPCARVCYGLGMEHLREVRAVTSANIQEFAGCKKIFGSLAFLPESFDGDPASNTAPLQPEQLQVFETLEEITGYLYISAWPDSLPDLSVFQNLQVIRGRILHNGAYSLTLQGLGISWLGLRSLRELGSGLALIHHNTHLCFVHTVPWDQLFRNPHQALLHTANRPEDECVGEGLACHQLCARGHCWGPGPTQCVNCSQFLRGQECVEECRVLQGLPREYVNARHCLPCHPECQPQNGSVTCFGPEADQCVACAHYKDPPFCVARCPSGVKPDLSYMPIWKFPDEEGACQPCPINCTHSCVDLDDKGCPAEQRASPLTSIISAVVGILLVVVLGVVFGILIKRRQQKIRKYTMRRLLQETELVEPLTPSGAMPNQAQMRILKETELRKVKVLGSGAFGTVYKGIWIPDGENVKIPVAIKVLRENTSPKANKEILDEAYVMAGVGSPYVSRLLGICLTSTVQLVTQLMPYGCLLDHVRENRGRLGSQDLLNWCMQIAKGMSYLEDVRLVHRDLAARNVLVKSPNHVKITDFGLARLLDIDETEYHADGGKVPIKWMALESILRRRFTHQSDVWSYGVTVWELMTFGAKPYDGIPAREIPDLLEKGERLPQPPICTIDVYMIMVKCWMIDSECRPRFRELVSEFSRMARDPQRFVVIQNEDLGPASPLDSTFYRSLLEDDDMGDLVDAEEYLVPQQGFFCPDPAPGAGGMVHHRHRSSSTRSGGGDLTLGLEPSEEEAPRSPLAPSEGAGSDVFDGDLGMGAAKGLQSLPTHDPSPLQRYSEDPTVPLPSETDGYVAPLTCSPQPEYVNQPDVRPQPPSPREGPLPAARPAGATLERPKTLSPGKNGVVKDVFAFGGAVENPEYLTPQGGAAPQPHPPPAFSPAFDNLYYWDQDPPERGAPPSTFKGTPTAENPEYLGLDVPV
Protocol: as §1

Sequence of Ephrin type-A receptor 2 (P29317 whole entry): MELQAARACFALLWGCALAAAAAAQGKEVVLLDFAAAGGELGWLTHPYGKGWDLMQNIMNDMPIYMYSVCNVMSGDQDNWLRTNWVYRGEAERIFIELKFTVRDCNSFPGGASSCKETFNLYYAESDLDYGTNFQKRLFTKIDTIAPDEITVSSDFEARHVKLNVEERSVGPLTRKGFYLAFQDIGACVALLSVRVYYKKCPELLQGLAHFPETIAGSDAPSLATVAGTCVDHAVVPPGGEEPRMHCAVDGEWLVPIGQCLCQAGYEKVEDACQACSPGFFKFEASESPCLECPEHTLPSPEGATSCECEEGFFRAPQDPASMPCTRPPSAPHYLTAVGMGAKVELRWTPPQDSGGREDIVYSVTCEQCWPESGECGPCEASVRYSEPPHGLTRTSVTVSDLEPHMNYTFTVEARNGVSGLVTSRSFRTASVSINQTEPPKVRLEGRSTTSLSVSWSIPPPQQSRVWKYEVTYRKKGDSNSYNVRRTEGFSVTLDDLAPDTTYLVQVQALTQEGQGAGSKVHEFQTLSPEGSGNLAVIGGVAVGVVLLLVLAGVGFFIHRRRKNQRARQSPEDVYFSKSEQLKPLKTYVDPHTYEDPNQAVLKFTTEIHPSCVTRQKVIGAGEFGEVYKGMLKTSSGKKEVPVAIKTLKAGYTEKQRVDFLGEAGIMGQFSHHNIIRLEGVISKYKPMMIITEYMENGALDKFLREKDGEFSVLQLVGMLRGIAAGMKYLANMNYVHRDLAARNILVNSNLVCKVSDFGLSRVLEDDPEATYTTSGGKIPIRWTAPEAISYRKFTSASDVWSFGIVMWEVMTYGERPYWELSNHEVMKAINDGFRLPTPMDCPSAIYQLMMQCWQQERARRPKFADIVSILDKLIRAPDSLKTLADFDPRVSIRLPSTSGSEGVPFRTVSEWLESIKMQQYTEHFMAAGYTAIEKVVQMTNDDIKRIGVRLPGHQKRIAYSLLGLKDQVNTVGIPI
Sequence of Vascular endothelial growth factor receptor 2 (P35968 whole entry): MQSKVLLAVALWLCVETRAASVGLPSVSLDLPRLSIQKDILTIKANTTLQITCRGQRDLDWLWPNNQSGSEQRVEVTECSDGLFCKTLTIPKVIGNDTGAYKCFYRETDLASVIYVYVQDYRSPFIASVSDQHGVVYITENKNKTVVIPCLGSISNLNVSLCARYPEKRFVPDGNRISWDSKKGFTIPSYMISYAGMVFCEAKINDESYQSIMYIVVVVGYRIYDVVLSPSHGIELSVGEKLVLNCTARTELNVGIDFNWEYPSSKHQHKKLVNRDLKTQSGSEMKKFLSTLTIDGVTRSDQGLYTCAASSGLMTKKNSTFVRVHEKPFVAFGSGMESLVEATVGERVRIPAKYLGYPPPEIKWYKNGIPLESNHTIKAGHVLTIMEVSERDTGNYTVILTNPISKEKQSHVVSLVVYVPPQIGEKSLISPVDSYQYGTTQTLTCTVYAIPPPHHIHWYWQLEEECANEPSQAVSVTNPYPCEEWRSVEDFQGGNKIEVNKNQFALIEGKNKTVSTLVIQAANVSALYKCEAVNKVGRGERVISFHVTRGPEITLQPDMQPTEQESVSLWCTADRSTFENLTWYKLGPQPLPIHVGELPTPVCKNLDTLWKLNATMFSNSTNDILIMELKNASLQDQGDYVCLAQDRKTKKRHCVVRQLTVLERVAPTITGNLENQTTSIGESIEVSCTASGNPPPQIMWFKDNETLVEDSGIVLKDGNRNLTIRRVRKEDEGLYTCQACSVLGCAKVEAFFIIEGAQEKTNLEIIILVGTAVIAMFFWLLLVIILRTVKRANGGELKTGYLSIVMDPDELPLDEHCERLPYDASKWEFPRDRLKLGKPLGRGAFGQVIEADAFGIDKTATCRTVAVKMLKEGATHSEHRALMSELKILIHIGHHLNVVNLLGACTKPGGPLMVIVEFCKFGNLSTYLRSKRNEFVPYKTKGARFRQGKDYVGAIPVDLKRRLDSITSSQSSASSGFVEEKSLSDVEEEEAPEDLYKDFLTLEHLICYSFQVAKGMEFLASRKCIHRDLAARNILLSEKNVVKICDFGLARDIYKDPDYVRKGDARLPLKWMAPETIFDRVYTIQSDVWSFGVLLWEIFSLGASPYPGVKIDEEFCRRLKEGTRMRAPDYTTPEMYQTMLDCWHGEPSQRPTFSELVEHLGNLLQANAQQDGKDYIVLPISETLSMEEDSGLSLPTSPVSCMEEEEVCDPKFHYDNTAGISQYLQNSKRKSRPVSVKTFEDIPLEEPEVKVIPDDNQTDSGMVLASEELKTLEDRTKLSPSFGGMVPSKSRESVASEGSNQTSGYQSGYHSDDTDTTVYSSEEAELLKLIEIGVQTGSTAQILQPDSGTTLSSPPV
Protocol for Ephrin type-A receptor 2: as §1
Protocol for Ephrin type-B receptor 4: as §1

As for `COc1cc2c(Nc3cc(Cl)c(Br)cc3F)ncnc2cc1OC[C@H]1CN2CCC[C@@H]2CO1` [US9796704, Entry 32], the IC50 (commonly the point on the concentration scale where inhibition reaches its midpoint) at Ephrin type-A receptor 2 is “in the range around 10500 nM”; on Ephrin type-B receptor 4 it was “in the range around 525 nM”; in test [1], “in the range around 10500 nM”; in test [2], “in the range around 525 nM”.
For the compound `COc1cc2c(Nc3ccc(Br)c(Cl)c3Cl)ncnc2cc1OC[C@H]1C[C@@H]2CN(C)C[C@@H]2C1` [US9796704, Entry 14], the IC50 result in test [3] and in test [1] was “in the range around 525 nM” each time.
For the compound `COc1cc2c(Nc3ccc(Cl)c(Cl)c3F)ncnc2cc1OC[C@@H]1C[C@@H]2CN(CC(C)C)C[C@@H]2C1` [US9796704, Entry 8], the IC50 entry against Ephrin type-B receptor 4 was “in the range around 525 nM”; in test [3], “in the range around 10500 nM”; in test [1], “in the range around 10500 nM”.
For `COc1cc2c(Nc3ccc(Cl)c(Cl)c3)ncnc2cc1OCCC1CC2CCC(C1)N2C` (configuration not stated) [US9796704, Entry 57], the IC50 entry was “in the range around 525 nM” against Ephrin type-B receptor 4, “in the range around 525 nM” in test [3] and “in the range around 10500 nM” in test [1].
As for `COc1cc2c(Nc3ccc(Br)c(Cl)c3Cl)ncnc2cc1OC[C@H]1CN2CCOCC2CO1` (some centres not stated) [US9796704, Entry 18], the results for the IC50 (on Ephrin type-B receptor 4; in test [3]; in test [1]) were below 50 nM, “in the range around 525 nM” and “in the range around 525 nM”, respectively.
For `COc1cc2c(Nc3ccc(Br)c(Cl)c3F)ncnc2cc1OC[C@H]1C[C@@H]2CN(C)C[C@@H]2C1` [US9796704, Entry 10], the IC50 entry in test [3] and in test [1] was “in the range around 525 nM” each time.
Consider `COc1cc2c(Nc3cc(Cl)c(Br)cc3F)ncnc2cc1OC[C@H]1C[C@@H]2CN(C)C[C@@H]2C1` [US9796704, Entry 13], for which the 50% inhibitory concentration (IC50) in test [3] and in test [1] was below 50 nM each time.
Consider `COc1cc2c(Nc3ccc(Br)c(Cl)c3F)ncnc2cc1OCC1CO[C@@H]2[C@@H](OC)CO[C@H]12` (some centres not stated) [US9796704, Entry 44], for which the IC50 result is “in the range around 10500 nM” in test [3] and “in the range around 525 nM” in test [1].
On to `COc1cc2c(Nc3ccc(Br)c(Cl)c3Cl)ncnc2cc1O[C@H]1CO[C@H]2[C@@H]1OC[C@@H]2OC` [US9796704, Entry 66], for which the IC50 entry in test [3] was “in the range around 10500 nM”; in test [1], above 20000 nM; in test [2], above 20000 nM.
Consider `COc1cc2c(Nc3ccc(Cl)c(Cl)c3)ncnc2cc1OCCNC1CC2CCC(C1)N2C` (configuration not stated) [US9796704, Entry 55], for which the IC50 result was “in the range around 10500 nM” at Ephrin type-A receptor 2, “in the range around 525 nM” in test [3] and “in the range around 10500 nM” in test [1].
With `COc1cc2c(Nc3ccc(Cl)c(Cl)c3F)ncnc2cc1OC[C@H]1CN2CCC[C@@H]2C(=O)N1C` [US9796704, Entry 54], the IC50 entry against Ephrin type-A receptor 2 was “in the range around 10500 nM”; against Ephrin type-B receptor 4, “in the range around 525 nM”; in test [1], “in the range around 10500 nM”; in test [2] it was “in the range around 10500 nM”.
Turning to `COc1cc2c(Nc3ccc(F)c(Cl)c3F)ncnc2cc1OC[C@H]1C[C@@H]2CN(C)C[C@@H]2C1` [US9796704, Entry 11], the IC50 entry in test [3] and in test [1] was “in the range around 525 nM” each time.
On to `COc1cc2c(Nc3ccc(Br)c(Cl)c3F)ncnc2cc1OC[C@@H]1CN2CCOCC2CO1` (some centres not stated) [US9796704, Entry 23], for which the IC50 entry against Ephrin type-A receptor 2 was “in the range around 10500 nM”; at Ephrin type-B receptor 4, “in the range around 10500 nM”; in test [1] it was “in the range around 525 nM”; in test [2], “in the range around 10500 nM”.
Turning to `COc1cc2c(Nc3ccc(Br)c(Cl)c3F)ncnc2cc1OC[C@@H]1C[C@@H]2CN(CC(C)C)C[C@@H]2C1` [US9796704, Entry 17], the IC50 result at Ephrin type-A receptor 2 is “in the range around 525 nM”; in test [3], “in the range around 10500 nM”; in test [1], “in the range around 525 nM”; in test [2], “in the range around 525 nM”.
In the case of `COc1cc2c(Nc3ccc(Cl)c(Cl)c3F)ncnc2cc1OC[C@@H]1CN2CCOCC2CO1` (some centres not stated) [US9796704, Entry 22], the IC50 result on Ephrin type-A receptor 2 is “in the range around 10500 nM”; against Ephrin type-B receptor 4 it was “in the range around 10500 nM”; in test [3] it was “in the range around 525 nM”; in test [1], “in the range around 525 nM”; in test [2], “in the range around 10500 nM”.
In the case of `CCN1C[C@H]2C[C@@H](COc3cc4ncnc(Nc5ccc(Br)c(Cl)c5F)c4cc3OC)C[C@H]2C1` [US9796704, Entry 16], the IC50 result (at Ephrin type-A receptor 2; in test [3]; in test [1]; in test [2]) was “in the range around 525 nM” each time.
As to `COc1cc2c(Nc3ccc(Cl)c(Cl)c3F)ncnc2cc1OC[C@@H]1CN2CCC[C@H]2CO1` [US9796704, Entry 36], the 50% inhibitory concentration (IC50) entry (against Ephrin type-A receptor 2; on Ephrin type-B receptor 4; in test [3]; in test [1]) was “in the range around 10500 nM” each time.
On to `COc1cc2c(Nc3ccc(Cl)c(Cl)c3)ncnc2cc1OC[C@H]1C[C@@H]2CN(C)C[C@@H]2C1` [US9796704, Entry 15], for which the IC50 in test [3] was below 50 nM; in test [1], “in the range around 525 nM”.
The matching figures for `COc1cc2c(Nc3ccc(Cl)c(Cl)c3F)ncnc2cc1OC[C@@H]1C[C@@H]2CN(C(C)C)C[C@@H]2C1` [US9796704, Entry 1]: below 50 nM and “in the range around 525 nM”.
The matching figures for `COc1cc2c(Nc3ccc(Br)c(Cl)c3Cl)ncnc2cc1OC[C@@H]1CN2CCOCC2CO1` (some centres not stated) [US9796704, Entry 27]: “in the range around 525 nM” and below 50 nM.
On to `COc1cc2c(Nc3ccc(F)c(Cl)c3F)ncnc2cc1OC[C@@H]1CN2CCC[C@H]2CO1` [US9796704, Entry 38], for which the IC50 entry at Ephrin type-A receptor 2 is “in the range around 525 nM”; on Ephrin type-B receptor 4, “in the range around 525 nM”; in test [3], below 50 nM; in test [1] it was “in the range around 10500 nM”; in test [2] it was below 50 nM.
Regarding `COc1cc2c(Nc3ccc(Cl)c(Cl)c3)ncnc2cc1OC1CC2CCC(C1)N2C` (configuration not stated) [US9796704, Entry 60], the IC50 result against Ephrin type-A receptor 2 is “in the range around 10500 nM”; in test [3], “in the range around 525 nM”; in test [1], “in the range around 525 nM”; in test [2], “in the range around 10500 nM”.
For the compound `COc1cc2c(Nc3ccc(Br)c(Cl)c3F)ncnc2cc1OC[C@@H]1CN2CCC[C@H]2C(=O)N1` [US9796704, Entry 53], the IC50 result against Ephrin type-A receptor 2 is “in the range around 10500 nM”; at Ephrin type-B receptor 4 it was “in the range around 525 nM”; in test [3] it was “in the range around 525 nM”; in test [1], “in the range around 10500 nM”.
For `COc1cc2c(Nc3cc(Cl)c(Br)cc3F)ncnc2cc1OCC1CO[C@@H]2[C@@H](OC)CO[C@H]12` (some centres not stated) [US9796704, Entry 41], the IC50 entry in test [3] and in test [1] was “in the range around 525 nM” throughout.
As for `COc1cc2c(Nc3cc(Cl)c(Cl)cc3F)ncnc2cc1OC[C@H]1C[C@@H]2CN(C)C[C@@H]2C1` [US9796704, Entry 12], the IC50 in test [3] and in test [1] was below 50 nM each time.
